Assays:
Assay type in all cases: in vivo
[1] = tested on: primary care patients with major depression disorder; test: 8-week, double-blind, randomised, placebo-controlled, flexible-dose clinical study; conditions: Week 1 (p=0.023) to Week 4 (p=0.002), observed cases
Text: (§1) This has i.a. been found in the Chronic Mild Stress model (Willner P., Psychopharmachology 1997, 134, 319-329).
A total of 471 patients were randomised into the study. The all-patient-treated set comprised 469 patients and the full-analysis set comprised 468 patients.
There was an approximately 3 to 1 ratio of women to men in each treatment group, and almost all patients were Caucasian. The mean age was 43 years (SD 11). At baseline, the mean MADRS total score was approximately 29 for the treatment group, which signifies moderate to severely ill patients.

[2] = tested on: Chronic Mild Stress model; test: Chronic Mild Stress model; conditions: animal models
Text: as §1

[3] = fixed dose studies (MADRS rating scale and Clinical Global Impression); conditions: escitalopram in a dose of 10 mg

## CN(C)CCC[C@@]1(c2ccc(F)cc2)OCc2cc(C#N)ccc21 [escitalopram, (S)-1-[3-(dimethylamino)propyl]-1-(4-fluorophenyl)-1,3-dihydro-5-isobenzofurancarbonitrile]
[1]
  therapeutic effect versus placebo, adjusted mean change in MADRS total score: significantly superior therapeutic effect
[2]
  speed of response: faster response than citalopram-racemate
[3]
  effect as determined by the MADRS rating scale and Clinical Global Impression (severity as well as improvement): at least same effect as citalopram in a dose of 40 mg

— patent publication US20040198810A1 (H. Lundbeck A/S, priority 2001, published 2004)
